Experiments:
[1] = (§1) Binding affinity to Aquifex aeolicus sodium-coupled leucine transporter
[2] = tested on: Aquifex aeolicus; test: as §1
[3] = Inhibition of L-[3H]Leu uptake at Aquifex aeolicus sodium-coupled leucine transporter
[4] = Inhibition of L-[3H]Ala uptake at Aquifex aeolicus sodium-coupled leucine transporter
[5] = tested on: Aquifex aeolicus; test: Activity at Aquifex aeolicus sodium-coupled leucine transporter assessed as inhibition of L-[3H]Ala transport at 1 uM
[6] = tested on: Aquifex aeolicus; test: Activity at Aquifex aeolicus sodium-coupled leucine transporter assessed as inhibition of L-[3H]Ala transport at 20 uM
[7] = tested on: Aquifex aeolicus; test: Activity at Aquifex aeolicus sodium-coupled leucine transporter assessed as inhibition of L-[3H]Ala transport at 50 uM

Kd [1] [µM]	kcat [2] [s⁻¹]	IC50 [3] [µM]	IC50 [4] [µM]	Km [5] [µM]	Vmax [5] [pmol/min/mg]	Km [6] [µM]	Vmax [6] [pmol/min/mg]	Km [7] [µM]	Vmax [7] [pmol/min/mg]	SMILES
0.02	0.000333									CC(C)C[C@H](N)C(=O)O [LEUCINE]
		250	4.7	0.42	1480	0.47	970	0.48	770	CN(C)CCCN1c2ccccc2CCc2ccc(Cl)cc21 [CLOMIPRAMINE]
